Drawing on PubChem BioAssay (NCI), this text covers GI50 and TGI for 10 compounds.

Some test systems named below: HOP-62 NSCLC; ACHN renal; OVCAR-3 ovarian; HS 578T breast; RXF 393 renal; T-47D breast; K-562 leukemia; U251 CNS; UACC-257 melanoma; CCRF-CEM leukemia.
Assay in all cases: NCI anticancer screen, dose series, 48 h

Where “and” joins values, the source holds several entries; their conditions need not be identical. Equal entries are not always repeated.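 Values below derive from 48-hour exposures of cells grown in 96-well plates, with endpoints linearly interpolated between the two concentrations bracketing the appropriate inhibition level. GI50 is the concentration that inhibits growth by half. TGI: concentration producing complete growth inhibition.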

Turning to `O=C(NCC1CC1)c1ccc(-c2cccc(C(=O)NC3CC3)c2)cc1`, the GI50 in the experiment on HOP-62 NSCLC, in the experiment with ACHN renal, in the experiment on OVCAR-3 ovarian, in the experiment with HS 578T breast, with RXF 393 renal and in the experiment on T-47D breast was more than 25 µM throughout. Further, the GI50 in the experiment on K-562 leukemia, in the experiment on U251 CNS, in the experiment on UACC-257 melanoma and in the experiment with CCRF-CEM leukemia was more than 25 µM each time. Besides, the TGI in the experiment on HOP-62 NSCLC, in the experiment on ACHN renal, in the experiment with OVCAR-3 ovarian, in the experiment on HS 578T breast, in the experiment with RXF 393 renal and with T-47D breast was more than 25 µM in each case. For the same compound, the TGI in the experiment on K-562 leukemia, in the experiment with U251 CNS, in the experiment on UACC-257 melanoma and in the experiment with CCRF-CEM leukemia was more than 25 µM in each case.

As to `CC(C)=CCN1c2ccccc2NC(=O)CC1C` (centres undefined), the TGI with HOP-62 NSCLC, with ACHN renal, with OVCAR-3 ovarian, with HS 578T breast, in the experiment on RXF 393 renal and in the experiment on T-47D breast was more than 100 µM in each case. Further, the TGI with K-562 leukemia, with U251 CNS, in the experiment on UACC-257 melanoma and in the experiment with CCRF-CEM leukemia was more than 100 µM in each case.

On to `O=C(O)c1nc(NCc2nc3cc(Cl)ccc3o2)n[nH]1`, for which the GI50 in the experiment on HOP-62 NSCLC, with ACHN renal, in the experiment with OVCAR-3 ovarian, in the experiment with HS 578T breast, with RXF 393 renal and in the experiment with T-47D breast was more than 100 µM throughout. Besides, the GI50 in the experiment with K-562 leukemia, with U251 CNS, with UACC-257 melanoma and with CCRF-CEM leukemia was more than 100 µM each time. For the same compound, the TGI with HOP-62 NSCLC, with ACHN renal, with OVCAR-3 ovarian, with HS 578T breast, in the experiment on RXF 393 renal and in the experiment on T-47D breast was more than 100 µM in each case. For the same compound, the TGI in the experiment on K-562 leukemia, in the experiment with U251 CNS, with UACC-257 melanoma and in the experiment with CCRF-CEM leukemia was more than 100 µM in each case.

On to `Cc1ccc(S(=O)(=O)SC/C=C\CSS(=O)(=O)c2ccc(C)cc2)cc1`, for which the TGI was more than 100 µM in the experiment with HOP-62 NSCLC; > 100 µM and 83.6 µM with ACHN renal; 78.8 µM and 56 µM with OVCAR-3 ovarian; more than 100 µM in the experiment on HS 578T breast; 77.1 µM and 36.6 µM in the experiment with RXF 393 renal; more than 100 µM in the experiment on T-47D breast. Further, the TGI with K-562 leukemia is 25.2 µM and 64.9 µM; in the experiment on U251 CNS it was 66.3 µM and 34.7 µM; in the experiment with UACC-257 melanoma it was > 56.2 µM and 45.1 µM; in the experiment on CCRF-CEM leukemia, 37.6 µM. The GI50 with UACC-257 melanoma was 42.3 µM and 20.8 µM.

For `CN(C)CCNC(=O)Cn1ccc(=O)c2cc([N+](=O)[O-])ccc21`, the TGI with HOP-62 NSCLC, in the experiment on ACHN renal, in the experiment on OVCAR-3 ovarian, in the experiment with HS 578T breast, in the experiment on RXF 393 renal and with T-47D breast was more than 100 µM each time. The TGI with K-562 leukemia, with U251 CNS, in the experiment with UACC-257 melanoma and in the experiment on CCRF-CEM leukemia was more than 100 µM each time.

Regarding `CCOc1ccccc1CCN=C1NC(=O)/C(=C/c2ccc3ncccc3c2)S1`, the GI50 in the experiment on HOP-62 NSCLC is 1.44 µM; in the experiment with ACHN renal, 1.45 µM; with OVCAR-3 ovarian it was 0.772 µM; in the experiment on HS 578T breast, 2.76 µM; in the experiment with RXF 393 renal, 1.31 µM; in the experiment with T-47D breast, 1.46 µM. The GI50 in the experiment on K-562 leukemia is 0.84 µM; in the experiment with U251 CNS it was 1.2 µM; in the experiment on UACC-257 melanoma, 10.5 µM; in the experiment on CCRF-CEM leukemia, 1.05 µM. Further, the TGI in the experiment on HOP-62 NSCLC is more than 17.6 µM; with ACHN renal it was more than 25 µM; with OVCAR-3 ovarian it was 2.29 µM; in the experiment with HS 578T breast, more than 7.14 µM; in the experiment on RXF 393 renal, 10.5 µM; in the experiment with T-47D breast, more than 25 µM. The TGI in the experiment on K-562 leukemia is 19.8 µM; with U251 CNS it was more than 25 µM; in the experiment with UACC-257 melanoma it was more than 22.7 µM; with CCRF-CEM leukemia, 7.12 µM.

On to `O=[N+]([O-])c1ccccc1N=Nc1c(O)[nH]c2cccc(C(F)(F)F)c12`, for which the TGI in the experiment on HOP-62 NSCLC was 82.8 µM; in the experiment on ACHN renal, 40.1 µM; in the experiment with OVCAR-3 ovarian it was 62.2 µM; in the experiment on HS 578T breast, more than 100 µM; in the experiment with RXF 393 renal it was more than 100 µM; with T-47D breast, more than 100 µM. Also, the TGI was more than 100 µM with K-562 leukemia, more than 100 µM in the experiment with U251 CNS, 34.5 µM in the experiment with UACC-257 melanoma and more than 100 µM in the experiment on CCRF-CEM leukemia.

Take `CC1CC(C)CC(C)C(O)/C(C#N)=C/C=C/CC(C2CCCC2C(=O)O)OC(=O)CC(O)C(C)C1` (centres undefined): the GI50 in the experiment with HOP-62 NSCLC is 0.0183 µM; with ACHN renal it was 0.0326 µM; in the experiment on OVCAR-3 ovarian, 0.0358 µM and 0.0178 µM; in the experiment on HS 578T breast it was 0.0395 µM; with RXF 393 renal it was 0.00363 µM; in the experiment on T-47D breast, 0.00595 µM. Moreover, the GI50 was 0.0263 µM and < 0.0121 µM in the experiment with K-562 leukemia; 0.0359 µM with UACC-257 melanoma; 0.0241 µM in the experiment on CCRF-CEM leukemia. Moreover, the TGI is 0.108 µM and 0.0648 µM with HOP-62 NSCLC; 0.148 µM and 0.181 µM with ACHN renal; 0.199 µM and 0.0879 µM in the experiment with OVCAR-3 ovarian; 0.223 µM and 0.0673 µM in the experiment with HS 578T breast; 0.0304 µM and 0.0273 µM in the experiment on RXF 393 renal; 0.049 µM and < 0.0166 µM in the experiment with T-47D breast. Also, the TGI was 0.066 µM and 0.256 µM in the experiment with K-562 leukemia; 0.0547 µM and 0.0449 µM in the experiment on U251 CNS; 0.17 µM and 0.0491 µM with UACC-257 melanoma.

On to `Oc1cc(Cc2ccccc2)c(Cc2ccccc2)cc1O`, for which the TGI in the experiment with HOP-62 NSCLC, with ACHN renal, with OVCAR-3 ovarian, in the experiment with HS 578T breast, in the experiment on RXF 393 renal and in the experiment with T-47D breast was more than 10 µM each time. The TGI in the experiment with K-562 leukemia, in the experiment on U251 CNS, in the experiment on UACC-257 melanoma and in the experiment with CCRF-CEM leukemia was more than 10 µM each time.

For the compound `CCCN1C(=O)NC(=O)C(CC)(N2C(=O)c3c(F)c(F)c(F)c(F)c3C2=O)C1=O` (centres undefined), the GI50 was 2.04 µM with HOP-62 NSCLC; 1.9 µM with ACHN renal; 1.69 µM in the experiment with OVCAR-3 ovarian; 2.3 µM in the experiment with HS 578T breast; 2.28 µM in the experiment on RXF 393 renal; 2.01 µM in the experiment on T-47D breast. For the same compound, the GI50 with K-562 leukemia was 1.73 µM; in the experiment on U251 CNS it was 1.41 µM; in the experiment on UACC-257 melanoma, 2.99 µM; with CCRF-CEM leukemia, 1.1 µM. Further, the TGI in the experiment with HOP-62 NSCLC amounted to 4.4 µM; with ACHN renal, 3.69 µM; with OVCAR-3 ovarian it was 3.16 µM; in the experiment on HS 578T breast, 6.94 µM; with RXF 393 renal it was 4.45 µM; with T-47D breast it was 4.8 µM. Besides, the TGI in the experiment on K-562 leukemia amounted to 4.55 µM; in the experiment on U251 CNS it was 3.76 µM; in the experiment with UACC-257 melanoma, 8.63 µM; in the experiment with CCRF-CEM leukemia, 3.24 µM.
